Measured values taken from patent US11414385B2, “Compounds and methods for treating, detecting, and identifying compounds to treat apicomplexan parasitic diseases” (The University of Chicago, priority 2015, dated 2022).
Like-named read-outs stand apart in the source and are kept apart here.

Key:
[1] = system: T. gondii bradyzoites (EGS strain); experiment: EGS strain bradyzoite assay (cysts in HFF, dolichos/BAG1 staining); format: cell-based, Toxoplasma gondii; conditions: for IC50: EGS strain
[2] = system: P. falciparum strains D6, TM91-C235, W2, C2B; experiment: Malaria SYBR Green I-Based Fluorescence (MSF) Assay; format: cell-based, Plasmodium falciparum; conditions: Plasmodium falciparum
Outline: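 SYBR Green I fluorescence, proportional to parasite DNA, served as the proliferation read-out in a plate-based sensitivity assay. It was run on D6 (drug-sensitive), TM91-C235 (multi-drug resistant), W2 (chloroquine-resistant) and C2B (resistant to several drugs, including atovaquone).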

[3] = in vitro; format: in vitro ADME; conditions: dog, MDCK-MDR1
[4] = system: MDR1; experiment: in vitro; format: in vitro ADME; conditions: dog, MDCK-MDR1, MDCK-MDR1 Efflux Ratio
[5] = Microsomal metabolic stability, human; format: in vitro ADME; conditions: for half-life: human, liver microsomes
[6] = D6 strain, read-out: Pf D6 IC50

In the case of `Cc1[nH]c2c(c(=O)c1-c1ccc(Oc3ccc(OC(F)(F)F)cc3)cc1)CCCC2` [JAG21, 2-methyl-3-(4-(4-(trifluoromethoxy)phenoxy)phenyl)-5,6,7,8-tetrahydroquinolin-4(1H)-one], the “reduction in the number of true cysts and small organisms” value ([1]; 1 μM and 10 μM, EGS) is reported as “statistically significant reduction”, the IC90 ([1]; Toxoplasma gondii, read-out: IC 90 against bradyzoites) is reported as 500 nM and the Pseudocysts ([1]; part a, 1 μM) is reported as 29 ± 6. The Small organisms ([1]; part a, 1 μM) was 90.5 ± 33.5, the “True Cysts” value ([1]; part a, 1 μM) was 0.5 ± 0.6 and the Pseudocysts ([1]; part a, 10 μM) was 25.5 ± 5.1. The Small organisms ([1]; part a, 10 μM) was 73.25 ± 30.9, the “True Cysts” value ([1]; part a, 10 μM) was 0.25 ± 0.5 and the Pseudocysts ([1]; part b, 1 μM) was 2955. The Small organisms ([1]; part b, 1 μM) was 9734, the “True Cysts” value ([1]; part b, 1 μM) was 54 and the Pseudocysts ([1]; part b, 10 μM) was 2638. The Small organisms ([1]; part b, 10 μM) was 7309, the “True Cysts” value ([1]; part b, 10 μM) was 22 and the IC50 [2, 6] was 14.3 nM. The IC50 ([2]; including all drug resistant strains, read-out: inhibitor of Plasmodium falciparum) was 40 to 65 nM, the Papp A→B [3] was over 10 ×10⁻⁶ cm/s and the efflux ratio [4] was under 1.5. For the same compound, the “Human liver microsomes T1/2” value [5] was “∞” and the “remaining after 45 mins in human liver microsomes” value ([5]; 45 mins) was over 99%.
With `Cc1[nH]c2c(c(=O)c1-c1ccc(Oc3ccccc3)cc1)CCCC2` [MJM170] the “reduction of EGS bradyzoites in cysts in vitro” value [1] was “markedly reduces EGS bradyzoites in cysts”, the IC50 ([1]; Toxoplasma gondii, read-out: Brady IC50) was 1000 to 10000 nM and the IC50 ([1]; Toxoplasma gondii, read-out: T. gondii Bradyzoite IC50) was 4000 nM. It also gave an IC50 ([2]; C2B strain (multi-drug resistant, atovaquone resistant), read-out: P. falciparum IC50) of 10 nM, an IC50 ([2]; C2B strain, read-out: SYBR Green C2B IC50) of 10 nM and an IC50 ([2]; D6 strain (drug sensitive), read-out: P. falciparum IC50) of 10 nM. It also gave an IC50 [2, 6] of 10 nM, an IC50 ([2]; D6 strain, read-out: SYBR Green D6 IC50) of 10 nM and an IC50 ([2]; TM91C235 strain (multi-drug resistant), read-out: P. falciparum IC50) of 30 nM. It also gave an IC50 ([2]; TM91C235 strain, read-out: SYBR Green C235 IC50) of 30 nM, an IC50 ([2]; W2 strain (chloroquine resistant), read-out: P. falciparum IC50) of 30 nM and an IC50 ([2]; W2 strain, read-out: SYBR Green W2 IC50) of 30 nM. For the same compound, the IC50 ([2]; wild type and multi-drug resistant, all strains, read-out: IC50 against P. falciparum) was under 30 nM, the Papp A→B [3] was 32.1 ×10⁻⁶ cm/s and the efflux ratio [4] was under 1.5. For the same compound, the “Human microsomal stability T1/2” value [5] was 2.438 h, the half-life ([5]; read-out: Human liver microsomes T1/2) was 2.44 h and the half-life ([5]; read-out: Human microsomal stability T1/2) was 2.43 h.
